How the values were obtained:
D(3) dopamine receptor = D(3) dopamine receptor (Homo sapiens, UniProt P35462); assay: Binding affinity towards human dopamine D3 receptor by [3H]spiperone displacement.
D(1A) dopamine receptor = D(1A) dopamine receptor (Bos taurus, UniProt Q95136); assay: Binding affinity towards bovine dopamine D1 receptor by [3H]-SCH- 23390 displacement.
D(4) dopamine receptor = target: T1, D(4) dopamine receptor (Homo sapiens, UniProt P21917); assay: Binding affinity towards human Dopamine receptor D4 by [3H]spiperone displacement.
T1 sequence (P21917 whole entry): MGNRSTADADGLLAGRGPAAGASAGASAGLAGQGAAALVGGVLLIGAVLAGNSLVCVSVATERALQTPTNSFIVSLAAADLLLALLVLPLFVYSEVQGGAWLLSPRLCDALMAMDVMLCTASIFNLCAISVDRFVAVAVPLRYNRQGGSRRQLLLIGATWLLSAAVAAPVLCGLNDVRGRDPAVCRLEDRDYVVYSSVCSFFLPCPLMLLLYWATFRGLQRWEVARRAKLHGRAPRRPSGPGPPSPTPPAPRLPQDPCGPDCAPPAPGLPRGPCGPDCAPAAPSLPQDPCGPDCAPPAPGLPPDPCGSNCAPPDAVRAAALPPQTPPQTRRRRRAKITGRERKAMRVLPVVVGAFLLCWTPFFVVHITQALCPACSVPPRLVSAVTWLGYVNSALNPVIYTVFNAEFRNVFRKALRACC

D(2) dopamine receptor [1] = target: T2, D(2) dopamine receptor (Homo sapiens, UniProt P14416); assay: Binding affinity towards human Dopamine receptor D2 (short) by [3H]-spiperone displacement.
D(2) dopamine receptor [2] = target: T2, D(2) dopamine receptor; assay: Binding affinity towards human Dopamine receptor D2 (long) by [3H]-spiperone displacement.

Chain of D(3) dopamine receptor (P35462 whole entry): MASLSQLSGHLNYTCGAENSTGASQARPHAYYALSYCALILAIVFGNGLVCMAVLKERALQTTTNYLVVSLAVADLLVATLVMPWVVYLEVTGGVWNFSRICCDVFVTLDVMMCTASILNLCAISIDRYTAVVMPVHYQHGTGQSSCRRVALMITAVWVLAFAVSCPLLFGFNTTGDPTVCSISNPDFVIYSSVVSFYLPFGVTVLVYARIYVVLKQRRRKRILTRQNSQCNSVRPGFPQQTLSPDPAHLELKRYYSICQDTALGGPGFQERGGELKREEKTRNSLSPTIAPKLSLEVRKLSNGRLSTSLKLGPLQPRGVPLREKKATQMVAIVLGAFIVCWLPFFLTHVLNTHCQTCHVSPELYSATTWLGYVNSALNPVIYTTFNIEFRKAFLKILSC
T2 sequence (P14416 whole entry): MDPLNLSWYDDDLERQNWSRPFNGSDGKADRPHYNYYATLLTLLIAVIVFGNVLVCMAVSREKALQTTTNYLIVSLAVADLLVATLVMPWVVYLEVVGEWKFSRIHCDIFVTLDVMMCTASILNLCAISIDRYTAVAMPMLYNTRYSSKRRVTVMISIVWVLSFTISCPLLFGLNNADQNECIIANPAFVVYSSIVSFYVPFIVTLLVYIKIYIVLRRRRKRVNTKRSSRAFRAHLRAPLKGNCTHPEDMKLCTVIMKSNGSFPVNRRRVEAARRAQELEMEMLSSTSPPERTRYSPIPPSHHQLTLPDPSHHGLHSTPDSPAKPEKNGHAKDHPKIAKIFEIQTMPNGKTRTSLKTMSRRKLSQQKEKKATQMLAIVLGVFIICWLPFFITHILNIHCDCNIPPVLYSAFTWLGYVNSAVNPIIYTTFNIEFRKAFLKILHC
Chain of D(1A) dopamine receptor (Q95136 whole entry): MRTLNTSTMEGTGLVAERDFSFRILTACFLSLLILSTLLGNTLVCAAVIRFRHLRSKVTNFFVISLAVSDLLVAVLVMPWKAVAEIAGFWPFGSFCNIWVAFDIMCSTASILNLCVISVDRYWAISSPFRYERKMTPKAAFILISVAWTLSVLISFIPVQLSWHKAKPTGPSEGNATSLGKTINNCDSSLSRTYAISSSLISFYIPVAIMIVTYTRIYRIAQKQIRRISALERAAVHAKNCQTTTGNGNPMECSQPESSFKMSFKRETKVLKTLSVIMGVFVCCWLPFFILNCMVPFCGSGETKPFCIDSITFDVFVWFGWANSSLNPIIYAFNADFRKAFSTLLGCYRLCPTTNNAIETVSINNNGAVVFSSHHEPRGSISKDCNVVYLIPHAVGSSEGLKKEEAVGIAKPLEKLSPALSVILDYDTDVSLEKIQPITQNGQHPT

SMILES | Ki (D(3) dopamine receptor) [µM] | Ki (D(1A) dopamine receptor) [µM] | Ki (D(4) dopamine receptor) [µM] | Ki (D(2) dopamine receptor [1]) [µM] | Ki (D(2) dopamine receptor [2]) [µM]
CNc1cc(OC)c(C(=O)NC[C@H]2CCN(Cc3ccccc3)C2)cc1Cl | 0.36 | 9.7 | 0.023 | 0.086 | 0.11
COc1cc(NC(C)=O)c(Cl)cc1C(=O)NC[C@H]1CCN(Cc2ccccc2)C1 | 8.7 | 41 | 0.34 | 25 | 27
COc1cc(N)c(Cl)cc1C(=O)NC[C@@H]1CCN(Cc2ccccc2)C1 | 0.57 | 11 | 0.18 | 0.64 | 1.4
CCC[C@H]1CN(Cc2ccccc2)C[C@@H]1CNC(=O)c1cc(Cl)c(NC)cc1OC | 0.35 | 4.1 | 0.99 | 0.54 | 0.98
COc1cc(N(C)C(C)=O)c(Cl)cc1C(=O)NC[C@@H]1CCN(Cc2ccccc2)C1 | 7.2 | 75 | 4.2 | 19 | 30
CCC[C@@H]1CN(Cc2ccccc2)C[C@H]1CNC(=O)c1cc(Cl)c(NC)cc1OC | 0.27 | 3.3 | 0.13 | 0.024 | 0.054
COc1cc(N)c(Cl)cc1C(=O)NC[C@H]1CCN(Cc2ccccc2)C1 | 2.2 | 11 | 0.14 | 0.54 | 0.82
CCC[C@H]1CN(Cc2ccccc2)C[C@H]1CNC(=O)c1cc(Cl)c(NC)cc1OC | 0.31 | 0.24 | 0.046 | 0.028 | 0.045
CNc1cc(OC)c(C(=O)NC[C@H]2CN(Cc3ccccc3)C[C@H]2C)cc1Cl | 0.11 | 11 | 0.047 | 0.079 | 0.15
CNc1cc(OC)c(C(=O)NC[C@@H]2CCN(Cc3ccccc3)C2)cc1Cl | 0.047 | 5.1 | 0.019 | 0.058 | 0.11
COc1cc(N(C)C(C)=O)c(Cl)cc1C(=O)NC[C@H]1CCN(Cc2ccccc2)C1 | 11 | 87 | 7 | 28 | 38
COc1cc(NC(C)=O)c(Cl)cc1C(=O)NC[C@@H]1CCN(Cc2ccccc2)C1 | 2.7 | 35 | 0.25 | 21 | 19
COc1ccc(Br)cc1C(=O)NC[C@@H]1CCN(Cc2ccccc2)C1 | 1.1 | 3.7 | 0.048 | 1.6 | 3.1
CNc1cc(OC)c(C(=O)NC[C@@H]2CN(Cc3ccccc3)C[C@H]2C)cc1Cl | 0.21 | 14 | 0.22 | 0.01 | 0.028
CNc1cc(OC)c(C(=O)NC[C@@H]2CN(Cc3ccccc3)C[C@@H]2C)cc1Cl | 0.57 | 12 | 0.24 | 0.021 | 0.051
CNc1cc(OC)c(C(=O)NC[C@H]2CN(Cc3ccccc3)C[C@@H]2C)cc1Cl | 0.32 | 20 | 0.15 | 0.12 | 0.33
COc1ccc(Br)cc1C(=O)NC[C@H]1CCN(Cc2ccccc2)C1 | 2.1 | 5.2 | 0.046 | 1.5 | 2
CCC[C@@H]1CN(Cc2ccccc2)C[C@@H]1CNC(=O)c1cc(Cl)c(NC)cc1OC | 0.031 | 2.8 | 0.2 | 0.19 | 0.19
CCN1CCC[C@H]1CNC(=O)c1cc(S(N)(=O)=O)ccc1OC [LEVOSULPIRIDE] |  | 50 |  |  | 
